Test results reported in ChEMBL document CHEMBL3286379, “Design and synthesis of pyrimidine molecules endowed with thiazolidin-4-one as new anticancer agents” (Eur J Med Chem, 2014).

Assays:
[1] = tested on: MCF7; experiment: Growth inhibition of human MCF7 cells after 48 hrs by sulforhodamine B assay; type: functional; settings: MCF7, 48 h
[2] = tested on: M14; experiment: Growth inhibition of human M14 cells after 48 hrs by sulforhodamine B assay; type: functional; settings: M14, 48 h
[3] = tested on: HL-60(TB); experiment: Growth inhibition of human HL-60(TB) cells after 48 hrs by sulforhodamine B assay; type: functional; settings: HL-60, 48 h
[4] = tested on: PC-3; experiment: Growth inhibition of human PC3 cells after 48 hrs by sulforhodamine B assay; type: functional; settings: PC-3, 48 h
[5] = Growth inhibition of human HOP92 cells after 48 hrs by sulforhodamine B assay; type: functional; settings: HOP-92, 48 h
[6] = tested on: U-251; experiment: Growth inhibition of human U251 cells after 48 hrs by sulforhodamine B assay; type: functional; settings: U-251, 48 h
[7] = tested on: HT-29; experiment: Growth inhibition of human HT-29 cells after 48 hrs by sulforhodamine B assay; type: functional; settings: HT-29, 48 h
[8] = Growth inhibition of human HCT15 cells after 48 hrs by sulforhodamine B assay; type: functional; settings: HCT-15, 48 h
[9] = tested on: T47D; experiment: Growth inhibition of human T47D cells after 48 hrs by sulforhodamine B assay; type: functional
[10] = tested on: DU-145; experiment: Growth inhibition of human DU145 cells after 48 hrs by sulforhodamine B assay; type: functional; settings: DU-145, 48 h
[11] = Growth inhibition of human BT549 cells after 48 hrs by sulforhodamine B assay; type: functional; settings: BT-549, 48 h
[12] = tested on: NCI-H23; experiment: Growth inhibition of human NCI-H23 cells after 48 hrs by sulforhodamine B assay; type: functional; settings: NCI-H23, 48 h
[13] = Growth inhibition of human OVCAR3 cells after 48 hrs by sulforhodamine B assay; type: functional; settings: OVCAR-3, 48 h
[14] = tested on: MDA-MB-435; experiment: Growth inhibition of human MDA-MB-435 cells after 48 hrs by sulforhodamine B assay; type: functional; settings: MDA-MB-435, 48 h
[15] = tested on: SNB-19; experiment: Growth inhibition of human SNB19 cells after 48 hrs by sulforhodamine B assay; type: functional; settings: SNB-19, 48 h
[16] = Growth inhibition of human SF539 cells after 48 hrs by sulforhodamine B assay; type: functional; settings: SF-539, 48 h
[17] = tested on: Rattus norvegicus; experiment: Hepatotoxicity in rat assessed as SGPT level at 0.12 mg/kg, po after 12 days (reference value: 31.17 +/- 0.39 U/mL); type: toxicity, organism-based; parameters: dose 0.12 mg/kg, route oral; settings: in vivo, 288 h
[18] = tested on: SK-MEL-28; experiment: Growth inhibition of human SK-MEL-28 cells after 48 hrs by sulforhodamine B assay; type: functional; settings: SK-MEL-28, 48 h
[19] = tested on: NCI-H226; experiment: Growth inhibition of human NCI-H226 cells after 48 hrs by sulforhodamine B assay; type: functional; settings: NCI-H226, 48 h
[20] = tested on: SF-268; experiment: Growth inhibition of human SF268 cells after 48 hrs by sulforhodamine B assay; type: functional; settings: SF-268, 48 h
[21] = read-out: LC50 (the source's name)
[22] = read-out: pLC50 (the source's name) (converted)

Structure (SMILES): Nc1nc(-c2ccccc2Cl)cc(-c2ccc(Cl)cc2Cl)n1
- GI50 ([1]; read-out: GI50): 3.45 µM
- CC50 [1, 21]: > 100 µM
- TGI ([1]; read-out: TGI): > 100 µM
- GI50 ([1]; read-out: pGI50 (converted)): 3.47 µM
- CC50 [1, 22]: > 100 µM
- TGI ([1]; read-out: pTGI): > 100 µM
- GI50 ([2]; read-out: GI50): 5.95 µM
- CC50 [2, 21]: > 100 µM
- TGI ([2]; read-out: TGI): > 100 µM
- GI50 ([2]; read-out: pGI50 (converted)): 5.89 µM
- CC50 [2, 22]: > 100 µM
- TGI ([2]; read-out: pTGI): > 100 µM
- GI50 ([3]; read-out: GI50): 3.14 µM
- CC50 [3, 21]: > 100 µM
- TGI ([3]; read-out: TGI): 17.3 µM
- GI50 ([3]; read-out: pGI50 (converted)): 3.16 µM
- CC50 [3, 22]: > 100 µM
- TGI ([3]; read-out: pTGI (converted)): 17.4 µM
- GI50 ([4]; read-out: GI50): 5.43 µM
- CC50 [4, 21]: > 100 µM
- TGI ([4]; read-out: TGI): > 100 µM
- GI50 ([4]; read-out: pGI50 (converted)): 5.37 µM
- CC50 [4, 22]: > 100 µM
- TGI ([4]; read-out: pTGI): > 100 µM
- GI50 ([5]; read-out: GI50): 0.527 µM
- CC50 [5, 21]: > 100 µM
- TGI ([5]; read-out: TGI): 7.62 µM
- GI50 ([5]; read-out: pGI50 (converted)): 0.525 µM
- CC50 [5, 22]: > 100 µM
- TGI ([5]; read-out: pTGI (converted)): 7.59 µM
- GI50 ([6]; read-out: GI50): 11.1 µM
- CC50 [6, 21]: > 100 µM
- TGI ([6]; read-out: TGI): > 100 µM
- GI50 ([6]; read-out: pGI50 (converted)): 11.2 µM
- CC50 [6, 22]: > 100 µM
- TGI ([6]; read-out: pTGI): > 100 µM
- GI50 ([7]; read-out: GI50): 4.32 µM
- CC50 [7, 21]: > 100 µM
- TGI ([7]; read-out: TGI): 24.3 µM
- GI50 ([7]; read-out: pGI50 (converted)): 4.37 µM
- CC50 [7, 22]: > 100 µM
- TGI ([7]; read-out: pTGI (converted)): 24.5 µM
- GI50 ([8]; read-out: GI50): 5.09 µM
- CC50 [8, 21]: > 100 µM
- TGI ([8]; read-out: TGI): > 100 µM
- GI50 ([8]; read-out: pGI50 (converted)): 5.13 µM
- CC50 [8, 22]: > 100 µM
- TGI ([8]; read-out: pTGI): > 100 µM
- GI50 ([9]; read-out: GI50): 6.58 µM
- CC50 [9, 21]: > 100 µM
- TGI ([9]; read-out: TGI): > 100 µM
- GI50 ([9]; read-out: pGI50 (converted)): 6.61 µM
- CC50 [9, 22]: > 100 µM
- TGI ([9]; read-out: pTGI): > 100 µM
- GI50 ([10]; read-out: GI50): 5.33 µM
- CC50 [10, 21]: > 100 µM
- TGI ([10]; read-out: TGI): 70.1 µM
- GI50 ([10]; read-out: pGI50 (converted)): 5.37 µM
- CC50 [10, 22]: > 100 µM
- TGI ([10]; read-out: pTGI (converted)): 70.8 µM
- GI50 ([11]; read-out: GI50): 13.8 µM
- CC50 [11, 21]: > 100 µM
- TGI ([11]; read-out: TGI): > 100 µM
- GI50 ([11]; read-out: pGI50 (converted)): 13.8 µM
- CC50 [11, 22]: > 100 µM
- TGI ([11]; read-out: pTGI): > 100 µM
- GI50 ([12]; read-out: GI50): 12.3 µM
- CC50 [12, 21]: > 100 µM
- TGI ([12]; read-out: TGI): > 100 µM
- GI50 ([12]; read-out: pGI50 (converted)): 12.3 µM
- CC50 [12, 22]: > 100 µM
- TGI ([12]; read-out: pTGI): > 100 µM
- GI50 ([13]; read-out: GI50): 4.05 µM
- CC50 [13, 21]: > 100 µM
- TGI ([13]; read-out: TGI): 20.7 µM
- GI50 ([13]; read-out: pGI50 (converted)): 4.07 µM
- CC50 [13, 22]: > 100 µM
- TGI ([13]; read-out: pTGI (converted)): 20.9 µM
- GI50 ([14]; read-out: GI50): 1.97 µM
- CC50 [14, 21]: > 100 µM
- TGI ([14]; read-out: TGI): 4.93 µM
- GI50 ([14]; read-out: pGI50 (converted)): 1.95 µM
- CC50 [14, 22]: > 100 µM
- TGI ([14]; read-out: pTGI (converted)): 4.9 µM
- GI50 ([15]; read-out: GI50): 16.1 µM
- CC50 [15, 21]: > 100 µM
- TGI ([15]; read-out: TGI): > 100 µM
- GI50 ([15]; read-out: pGI50 (converted)): 16.2 µM
- CC50 [15, 22]: > 100 µM
- TGI ([15]; read-out: pTGI): > 100 µM
- GI50 ([16]; read-out: GI50): 7.39 µM
- CC50 [16, 21]: > 100 µM
- TGI ([16]; read-out: TGI): 67 µM
- GI50 ([16]; read-out: pGI50 (converted)): 7.41 µM
- CC50 [16, 22]: > 100 µM
- TGI ([16]; read-out: pTGI (converted)): 67.6 µM
- Activity [17]: 29.11 U/ml
- GI50 ([18]; read-out: GI50): 20.9 µM
- CC50 [18, 21]: > 100 µM
- TGI ([18]; read-out: TGI): > 100 µM
- GI50 ([18]; read-out: pGI50 (converted)): 20.9 µM
- CC50 [18, 22]: > 100 µM
- TGI ([18]; read-out: pTGI): > 100 µM
- GI50 ([19]; read-out: GI50): 81.1 µM
- CC50 [19, 21]: > 100 µM
- TGI ([19]; read-out: TGI): > 100 µM
- GI50 ([19]; read-out: pGI50 (converted)): 18.2 µM
- CC50 [19, 22]: > 100 µM
- TGI ([19]; read-out: pTGI): > 100 µM
- GI50 ([20]; read-out: GI50): 5.01 µM
- CC50 [20, 21]: > 100 µM
- TGI ([20]; read-out: TGI): 81.6 µM
- GI50 ([20]; read-out: pGI50 (converted)): 5.01 µM
- CC50 [20, 22]: > 100 µM
- TGI ([20]; read-out: pTGI (converted)): 81.3 µM
